In brackets after ≈: the same amount, converted by molar mass.
Legend:
[1] = system: Mannheimia haemolytica; assay: minimum inhibitory concentration (MIC)
Experimental: (§1)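 Broth microdilution MIC (Sensititre BOPO7F bovine plate, CLSI methods) of 19 antimicrobials against field isolates of P. multocida, M. haemolytica, H. somni (deep nasopharyngeal swabs) and E. coli, Enterococcus spp. (rectal swabs) from weaned dairy heifers. Incubation 16-24 h at 35 C. MIC is the lowest concentration preventing visible growth. Values with <= or > lie at the tested range limits. Trimethoprim-sulfamethoxazole is given as the trimethoprim component of a 1:19 mixture.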

[2] = system: Enterococcus spp.; assay: minimum inhibitory concentration (MIC)
Experimental: as §1

C=C[C@]1(C)C[C@@H](OC(=O)CSCCN(CC)CC)[C@]2(C)[C@H](C)CC[C@]3(CCC(=O)[C@H]32)[C@@H](C)[C@@H]1O [Tiamulin]
minimum inhibitory concentration [µg/mL]
Settings	[1]	[2]
isolate (source animal id): 2	–	1 (≈ 2.03 µM)
isolate (source animal id): 8	8 (≈ 16.2 µM)	–
isolate (source animal id): 13	8 (≈ 16.2 µM)	–
isolate (source animal id): 18	8 (≈ 16.2 µM)	–
isolate (source animal id): 21	8 (≈ 16.2 µM)	–
isolate (source animal id): 25	32 (≈ 64.8 µM)	–
isolate (source animal id): 27	16 (≈ 32.4 µM)	–
isolate (source animal id): 28	32 (≈ 64.8 µM)	–
isolate (source animal id): 30	8 (≈ 16.2 µM)	–
isolate (source animal id): 31	32 (≈ 64.8 µM)	–
isolate (source animal id): 32	8 (≈ 16.2 µM)	–
isolate (source animal id): 34	8 (≈ 16.2 µM)	–
isolate (source animal id): 35	–	> 32
isolate (source animal id): 36	32 (≈ 64.8 µM)	–
isolate (source animal id): 37	16 (≈ 32.4 µM)	–
isolate (source animal id): 40	8 (≈ 16.2 µM)	–
isolate (source animal id): 41	8 (≈ 16.2 µM)	–
isolate (source animal id): 42	–	> 32
isolate (source animal id): 43	8 (≈ 16.2 µM)	–
isolate (source animal id): 44	–	> 32
isolate (source animal id): 46	32 (≈ 64.8 µM)	–
isolate (source animal id): 49	16 (≈ 32.4 µM)	–
isolate (source animal id): 50	32 (≈ 64.8 µM)	–
isolate (source animal id): 51	8 (≈ 16.2 µM)	–
isolate (source animal id): 52	8 (≈ 16.2 µM)	–
isolate (source animal id): 53	8 (≈ 16.2 µM)	–
isolate (source animal id): 55	8 (≈ 16.2 µM)	–
isolate (source animal id): 56	8 (≈ 16.2 µM)	–
isolate (source animal id): 57	8 (≈ 16.2 µM)	–
isolate (source animal id): 79	–	> 32
isolate (source animal id): 88	–	2 (≈ 4.05 µM)
isolate (source animal id): 91	–	2 (≈ 4.05 µM)
isolate (source animal id): 92	–	> 32
isolate (source animal id): 100	16 (≈ 32.4 µM)	–
isolate (source animal id): 103	32 (≈ 64.8 µM)	–
isolate (source animal id): 107	16 (≈ 32.4 µM)	–
isolate (source animal id): 108	16 (≈ 32.4 µM)	–
isolate (source animal id): 111	–	2 (≈ 4.05 µM)
isolate (source animal id): 112	16 (≈ 32.4 µM)	–
isolate (source animal id): 113	8 (≈ 16.2 µM)	–
isolate (source animal id): 121	32 (≈ 64.8 µM)	–
isolate (source animal id): 122	16 (≈ 32.4 µM)	> 32
isolate (source animal id): 123	8 (≈ 16.2 µM)	> 32
isolate (source animal id): 126	32 (≈ 64.8 µM)	–
isolate (source animal id): 133	8 (≈ 16.2 µM)	≤ 0.5
isolate (source animal id): 135	8 (≈ 16.2 µM)	–
isolate (source animal id): 138	32 (≈ 64.8 µM)	–
isolate (source animal id): 141	8 (≈ 16.2 µM)	–
isolate (source animal id): 142	32 (≈ 64.8 µM)	–
isolate (source animal id): 145	32 (≈ 64.8 µM)	–
isolate (source animal id): 149	8 (≈ 16.2 µM)	–
isolate (source animal id): 151	16 (≈ 32.4 µM)	–
isolate (source animal id): 152	32 (≈ 64.8 µM)	–
isolate (source animal id): 154	16 (≈ 32.4 µM)	–
isolate (source animal id): 158	–	> 32
isolate (source animal id): 159	32 (≈ 64.8 µM)	–
isolate (source animal id): 162	16 (≈ 32.4 µM)	–
isolate (source animal id): 168	–	1 (≈ 2.03 µM)
isolate (source animal id): 169	–	1 (≈ 2.03 µM)
isolate (source animal id): 170	> 32	–
isolate (source animal id): 171	16 (≈ 32.4 µM)	> 32
isolate (source animal id): 172	32 (≈ 64.8 µM)	–
isolate (source animal id): 173	> 32	–
isolate (source animal id): 175	–	> 32
isolate (source animal id): 177	–	> 32
isolate (source animal id): 179	16 (≈ 32.4 µM)	–
isolate (source animal id): 180	16 (≈ 32.4 µM)	–
isolate (source animal id): 181	–	1 (≈ 2.03 µM)
isolate (source animal id): 182	–	1 (≈ 2.03 µM)
isolate (source animal id): 183	8 (≈ 16.2 µM)	> 32
isolate (source animal id): 186	8 (≈ 16.2 µM)	–
isolate (source animal id): 187	16 (≈ 32.4 µM)	1 (≈ 2.03 µM)
isolate (source animal id): 188	8 (≈ 16.2 µM)	–
isolate (source animal id): 190	16 (≈ 32.4 µM)	1 (≈ 2.03 µM)
isolate (source animal id): 191	> 32	–
isolate (source animal id): 192	16 (≈ 32.4 µM)	–
isolate (source animal id): 194	–	> 32
isolate (source animal id): 195	–	1 (≈ 2.03 µM)
isolate (source animal id): 197	–	8 (≈ 16.2 µM)
isolate (source animal id): 201	> 32	–
isolate (source animal id): 202	> 32	–
isolate (source animal id): 209	> 32	–
isolate (source animal id): 211	32 (≈ 64.8 µM)	≤ 0.5
isolate (source animal id): 214	–	16 (≈ 32.4 µM)
isolate (source animal id): 220	32 (≈ 64.8 µM)	–
isolate (source animal id): 221	> 32	–
isolate (source animal id): 222	–	> 32
isolate (source animal id): 223	> 32	> 32
isolate (source animal id): 228	–	≤ 0.5
isolate (source animal id): 230	–	≤ 0.5
isolate (source animal id): 233	32 (≈ 64.8 µM)	–
isolate (source animal id): 235	–	≤ 0.5
isolate (source animal id): 236	–	> 32
isolate (source animal id): 237	32 (≈ 64.8 µM)	–
isolate (source animal id): 239	–	2 (≈ 4.05 µM)
isolate (source animal id): 241	> 32	≤ 0.5
isolate (source animal id): 244	–	> 32
isolate (source animal id): 246	–	> 32
isolate (source animal id): 247	–	≤ 0.5
isolate (source animal id): 250	–	> 32
isolate (source animal id): 252	32 (≈ 64.8 µM)	> 32
isolate (source animal id): 253	16 (≈ 32.4 µM)	–
isolate (source animal id): 259	16 (≈ 32.4 µM)	–
isolate (source animal id): 260	32 (≈ 64.8 µM)	–
isolate (source animal id): 262	32 (≈ 64.8 µM)	–
isolate (source animal id): 268	–	1 (≈ 2.03 µM)
isolate (source animal id): 282	32 (≈ 64.8 µM)	> 32
isolate (source animal id): 285	–	> 32
isolate (source animal id): 287	32 (≈ 64.8 µM)	–
isolate (source animal id): 288	8 (≈ 16.2 µM)	–
isolate (source animal id): 289	–	> 32
isolate (source animal id): 290	–	> 32
isolate (source animal id): 291	16 (≈ 32.4 µM)	–
isolate (source animal id): 293	32 (≈ 64.8 µM)	–
isolate (source animal id): 296	–	> 32
isolate (source animal id): 298	16 (≈ 32.4 µM)	≤ 0.5
isolate (source animal id): 299	16 (≈ 32.4 µM)	–
isolate (source animal id): 300	8 (≈ 16.2 µM)	–
isolate (source animal id): 301	–	32 (≈ 64.8 µM)
isolate (source animal id): 302	16 (≈ 32.4 µM)	–
isolate (source animal id): 304	16 (≈ 32.4 µM)	–
isolate (source animal id): 306	8 (≈ 16.2 µM)	–
isolate (source animal id): 308	8 (≈ 16.2 µM)	–
isolate (source animal id): 309	8 (≈ 16.2 µM)	–
isolate (source animal id): 310	–	> 32
isolate (source animal id): 313	32 (≈ 64.8 µM)	–
isolate (source animal id): 318	16 (≈ 32.4 µM)	–
isolate (source animal id): 320	16 (≈ 32.4 µM)	> 32
isolate (source animal id): 321	32 (≈ 64.8 µM)	–
isolate (source animal id): 323	16 (≈ 32.4 µM)	–
isolate (source animal id): 324	32 (≈ 64.8 µM)	–
isolate (source animal id): 326	> 32	–
isolate (source animal id): 328	32 (≈ 64.8 µM)	–
isolate (source animal id): 329	32 (≈ 64.8 µM)	–
isolate (source animal id): 331	–	> 32
isolate (source animal id): 333	32 (≈ 64.8 µM)	> 32
isolate (source animal id): 335	16 (≈ 32.4 µM)	–
isolate (source animal id): 338	32 (≈ 64.8 µM)	–
isolate (source animal id): 341	–	> 32
